# From patent publication US6737383B1, “Herbicidal oxadiazolidines” (priority 1999, dated 2004)
# Experiments:
# blackgrass = assay: Test B pre/postemergence blackgrass; type: in vivo, Alopecurus myosuroides; details: for Blackgrass plant response rating: scale of 0 to 10 where 0 is no effect and 10 is complete control
# Method in brief: (§1)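 Test chemicals in a non-phytotoxic solvent mixture with surfactant were sprayed preemergence onto planted seeds and postemergence onto plants 2 to 18 cm tall (1- to 4-leaf stage). After twelve to sixteen days in a greenhouse, injury was visually rated against untreated controls from 0 (no effect) to 10 (complete control).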
# surinam grass = assay: Test B pre/postemergence surinam grass; type: in vivo, Brachiaria decumbens; details: for B. signalgrass plant response rating: scale of 0 to 10 where 0 is no effect and 10 is complete control
# Method in brief: as §1
# cocklebur = assay: Test B pre/postemergence cocklebur; type: in vivo, Xanthium strumarium; details: for Cocklebur plant response rating: scale of 0 to 10 where 0 is no effect and 10 is complete control
# Method in brief: as §1
# corn = assay: Test B pre/postemergence corn; type: in vivo, Zea mays; details: for Corn plant response rating: scale of 0 to 10 where 0 is no effect and 10 is complete control
# Method in brief: as §1
# crabgrass = assay: Test B pre/postemergence crabgrass; type: in vivo, Digitaria sanguinalis; details: for Crabgrass plant response rating: scale of 0 to 10 where 0 is no effect and 10 is complete control
# Method in brief: as §1
# giant foxtail = assay: Test B pre/postemergence giant foxtail; type: in vivo, Setaria faberii; details: for Giant foxtail plant response rating: scale of 0 to 10 where 0 is no effect and 10 is complete control
# Method in brief: as §1
# morningglory = assay: Test B pre/postemergence morningglory; type: in vivo, Ipomoea hederacea; details: for Morningglory plant response rating: scale of 0 to 10 where 0 is no effect and 10 is complete control
# Method in brief: as §1
# pigweed = assay: Test B pre/postemergence pigweed; type: in vivo, Amaranthus retroflexus; details: for Redroot pigweed plant response rating: scale of 0 to 10 where 0 is no effect and 10 is complete control
# Method in brief: as §1
# rape = assay: Test B pre/postemergence rape; type: in vivo, Brassica napus; details: for Rape plant response rating: scale of 0 to 10 where 0 is no effect and 10 is complete control
# Method in brief: as §1
# soybean = assay: Test B pre/postemergence soybean; type: in vivo, Glycine max; details: for Soybean plant response rating: scale of 0 to 10 where 0 is no effect and 10 is complete control
# Method in brief: as §1
# sugar beet = assay: Test B pre/postemergence sugar beet; type: in vivo, Beta vulgaris; details: for Sugarbeets plant response rating: scale of 0 to 10 where 0 is no effect and 10 is complete control
# Method in brief: as §1
# velvetleaf = assay: Test B pre/postemergence velvetleaf; type: in vivo, Abutilon theophrasti; details: for Velvetleaf plant response rating: scale of 0 to 10 where 0 is no effect and 10 is complete control
# Method in brief: as §1
# wild oat = assay: Test B pre/postemergence wild oat; type: in vivo, Avena fatua; details: for Wild oats plant response rating: scale of 0 to 10 where 0 is no effect and 10 is complete control
# Method in brief: as §1
# rice = assay: Test B flood test rice; type: in vivo, Oryza sativa
# Method in brief: (§2)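 Each value is a visual injury score relative to controls, with 10 meaning complete control and 0 no effect. Evaluation took place twelve to sixteen days after the 2-leaf-stage plants were treated and kept in the greenhouse.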
# duck salad = assay: Test B flood test duck salad; type: in vivo, Heteranthera limosa
# Method in brief: as §2
# bamyardgrass = assay: Test B flood test barnyardgrass; type: in vivo, Echinochloa crus-galli
# Method in brief: as §2
# [1] = Postemergence, Rate 125 g/ha, scale 0 to 10, 0 is no effect, 10 is complete control
# [2] = Postemergence, Rate 250 g/ha, scale 0 to 10, 0 is no effect, 10 is complete control
# [3] = Preemergence, Rate 62 g/ha, scale 0 to 10 (0 no effect, 10 complete control)
# [4] = Rate 500 g/ha, Postemergence, scale 0 to 10, 0 no effect, 10 complete control
# [5] = Postemergence (flood test), Rate 125 g/ha, scale 0 to 10, 0 is no effect, 10 is complete control
# [6] = Rate 62 g/ha, Postemergence (flood test species), scale of 0 to 10 where 0 is no effect and 10 is complete control
# [7] = Rate 62 g/ha, flood test species, Pre-emergence, visual evaluation after twelve to sixteen days
# [8] = Rate 125 g/ha, Pre-emergence, flood test species, scale 0 to 10 where 0 is no effect and 10 is complete control
# [9] = Rate 250 g/ha, Pre-emergence, flood-test species, scale 0 to 10, 0 is no effect, 10 is complete control
# [10] = Rate 500 g/ha, listed under Postemergence (flood test species), scale 0 to 10, 0 no effect, 10 complete control
# [11] = Rate 500 g/ha, Pre-emergence, flood test species, scale 0 to 10 (0 no effect, 10 complete control)
# [12] = flood test species, listed under Postemergence, Rate 250 g/ha, scale 0 to 10, 0 is no effect, 10 is complete control
smiles,measurement,setting,value
CC1CC1n1c(=O)on(C(=O)N(c2ccc(Cl)cc2)C(C)C)c1=O (centres unmarked) [Compound 369],"Plant response rating, Blackgrass",blackgrass; [1],0
same,"Plant response rating, Blackgrass",blackgrass; [2],5
same,"Plant response rating, Blackgrass",blackgrass; [3],0
same,Blackgrass plant response rating (0 to 10 scale),"blackgrass; Preemergence, Rate 125 g/ha",0
same,Blackgrass plant response rating,"blackgrass; Preemergence, Rate 250 g/ha",2
same,Blackgrass plant response rating,"blackgrass; Preemergence, Rate 500 g/ha",5
same,Blackgrass plant response rating,"blackgrass; Rate 62 g/ha, Postemergence",0
same,"Plant response rating, Blackgrass",blackgrass; [4],5
same,"Plant response rating, B. signalgrass",surinam grass; [1],0
same,"Plant response rating, B. signalgrass",surinam grass; [2],0
same,"Plant response rating, B. signalgrass",surinam grass; [3],0
same,"B. signalgrass plant response rating (0 to 10 scale, 0 is no effect, 10 is complete control)","surinam grass; Preemergence, Rate 125 g/ha",0
same,B. signalgrass plant response rating,"surinam grass; Preemergence, Rate 250 g/ha",2
same,B. signalgrass plant response rating,"surinam grass; Preemergence, Rate 500 g/ha",2
same,B. signalgrass plant response rating,"surinam grass; Rate 62 g/ha, Postemergence",0
same,"Plant response rating, B. signalgrass",surinam grass; [4],3
same,"Plant response rating, Cocklebur",cocklebur; [1],0
same,"Plant response rating, Cocklebur",cocklebur; [2],0
same,"Plant response rating, Cocklebur",cocklebur; [3],0
same,Cocklebur plant response rating (0 to 10 scale),"cocklebur; Preemergence, Rate 125 g/ha",0
same,Cocklebur plant response rating,"cocklebur; Preemergence, Rate 250 g/ha",0
same,Cocklebur plant response rating,"cocklebur; Preemergence, Rate 500 g/ha",0
same,Cocklebur plant response rating,"cocklebur; Rate 62 g/ha, Postemergence",0
same,"Plant response rating, Cocklebur",cocklebur; [4],0
same,"Plant response rating, Corn",corn; [1],0
same,"Plant response rating, Corn",corn; [2],0
same,"Plant response rating, Corn",corn; [3],0
same,Corn plant response rating (0 to 10 scale),"corn; Preemergence, Rate 125 g/ha",0
same,Corn plant response rating,"corn; Preemergence, Rate 250 g/ha",0
same,Corn plant response rating,"corn; Preemergence, Rate 500 g/ha",0
same,Corn plant response rating,"corn; Rate 62 g/ha, Postemergence",0
same,"Plant response rating, Corn",corn; [4],0
same,"Plant response rating, Crabgrass",crabgrass; [1],0
same,"Plant response rating, Crabgrass",crabgrass; [2],2
same,"Plant response rating, Crabgrass",crabgrass; [3],5
same,Crabgrass plant response rating (0 to 10 scale),"crabgrass; Preemergence, Rate 125 g/ha",7
same,Crabgrass plant response rating,"crabgrass; Preemergence, Rate 250 g/ha",9
same,Crabgrass plant response rating,"crabgrass; Preemergence, Rate 500 g/ha",10
same,Crabgrass plant response rating,"crabgrass; Rate 62 g/ha, Postemergence",0
same,"Plant response rating, Crabgrass",crabgrass; [4],9
same,"Plant response rating, Giant foxtail",giant foxtail; [1],0
same,"Plant response rating, Giant foxtail",giant foxtail; [2],2
same,"Plant response rating, Giant foxtail",giant foxtail; [3],8
same,Giant foxtail plant response rating (0 to 10 scale),"giant foxtail; Preemergence, Rate 125 g/ha",9
same,Giant foxtail plant response rating,"giant foxtail; Preemergence, Rate 250 g/ha",10
same,Giant foxtail plant response rating,"giant foxtail; Preemergence, Rate 500 g/ha",10
same,Giant foxtail plant response rating,"giant foxtail; Rate 62 g/ha, Postemergence",0
same,"Plant response rating, Giant foxtail",giant foxtail; [4],9
same,"Plant response rating, Morningglory",morningglory; [1],10
same,"Plant response rating, Morningglory",morningglory; [2],10
same,"Plant response rating, Morningglory",morningglory; [3],0
same,Morningglory plant response rating (0 to 10 scale),"morningglory; Preemergence, Rate 125 g/ha",0
same,Morningglory plant response rating,"morningglory; Preemergence, Rate 250 g/ha",0
same,Morningglory plant response rating,"morningglory; Preemergence, Rate 500 g/ha",0
same,Morningglory plant response rating,"morningglory; Rate 62 g/ha, Postemergence",7
same,"Plant response rating, Morningglory",morningglory; [4],10
same,"Plant response rating, Redroot pigweed",pigweed; [1],0
same,"Plant response rating, Redroot pigweed",pigweed; [2],0
same,"Plant response rating, Redroot pigweed",pigweed; [3],0
same,Redroot pigweed plant response rating (0 to 10 scale),"pigweed; Preemergence, Rate 125 g/ha",4
same,Redroot pigweed plant response rating,"pigweed; Preemergence, Rate 250 g/ha",10
same,Redroot pigweed plant response rating,"pigweed; Preemergence, Rate 500 g/ha",10
same,Redroot pigweed plant response rating,"pigweed; Rate 62 g/ha, Postemergence",0
same,"Plant response rating, Redroot pigweed",pigweed; [4],4
same,"Plant response rating, Rape",rape; [1],0
same,"Plant response rating, Rape",rape; [2],0
same,"Plant response rating, Rape",rape; [3],0
same,Rape plant response rating (0 to 10 scale),"rape; Preemergence, Rate 125 g/ha",0
same,Rape plant response rating,"rape; Preemergence, Rate 250 g/ha",2
same,Rape plant response rating,"rape; Preemergence, Rate 500 g/ha",5
same,Rape plant response rating,"rape; Rate 62 g/ha, Postemergence",0
same,"Plant response rating, Rape",rape; [4],3
same,"Plant response rating, Soybean",soybean; [1],0
same,"Plant response rating, Soybean",soybean; [2],1
same,"Plant response rating, Soybean",soybean; [3],0
same,Soybean plant response rating (0 to 10 scale),"soybean; Preemergence, Rate 125 g/ha",0
same,Soybean plant response rating,"soybean; Preemergence, Rate 250 g/ha",0
same,Soybean plant response rating,"soybean; Preemergence, Rate 500 g/ha",4
same,Soybean plant response rating,"soybean; Rate 62 g/ha, Postemergence",0
same,"Plant response rating, Soybean",soybean; [4],1
same,"Plant response rating, Sugarbeets",sugar beet; [1],0
same,"Plant response rating, Sugarbeets",sugar beet; [2],0
same,"Plant response rating, Sugarbeets",sugar beet; [3],0
same,Sugarbeets plant response rating (0 to 10 scale),"sugar beet; Preemergence, Rate 125 g/ha",0
same,Sugarbeets plant response rating,"sugar beet; Preemergence, Rate 250 g/ha",2
same,Sugarbeets plant response rating,"sugar beet; Preemergence, Rate 500 g/ha",4
same,Sugarbeets plant response rating,"sugar beet; Rate 62 g/ha, Postemergence",0
same,"Plant response rating, Sugarbeets",sugar beet; [4],2
same,"Plant response rating, Velvetleaf",velvetleaf; [1],0
same,"Plant response rating, Velvetleaf",velvetleaf; [2],0
same,"Plant response rating, Velvetleaf",velvetleaf; [3],0
same,Velvetleaf plant response rating (0 to 10 scale),"velvetleaf; Preemergence, Rate 125 g/ha",0
same,Velvetleaf plant response rating,"velvetleaf; Preemergence, Rate 250 g/ha",0
same,Velvetleaf plant response rating,"velvetleaf; Preemergence, Rate 500 g/ha",6
same,Velvetleaf plant response rating,"velvetleaf; Rate 62 g/ha, Postemergence",0
same,"Plant response rating, Velvetleaf",velvetleaf; [4],3
same,"Plant response rating, Wild oats",wild oat; [1],0
same,"Plant response rating, Wild oats",wild oat; [2],0
same,"Plant response rating, Wild oats",wild oat; [3],0
same,Wild oats plant response rating (0 to 10 scale),"wild oat; Preemergence, Rate 125 g/ha",0
same,Wild oats plant response rating,"wild oat; Preemergence, Rate 250 g/ha",0
same,Wild oats plant response rating,"wild oat; Preemergence, Rate 500 g/ha",7
same,Wild oats plant response rating,"wild oat; Rate 62 g/ha, Postemergence",0
same,"Plant response rating, Wild oats",wild oat; [4],4
same,"Plant response rating, Rice",rice; [5],0
same,Rice plant response rating,rice; [6],0
same,"Plant response rating, Rice (0 to 10 scale, 0 is no effect, 10 is complete control)",rice; [7],0
same,Rice plant response rating,rice; [8],0
same,Rice plant response rating,rice; [9],0
same,"Plant response rating, Rice",rice; [10],0
same,Rice plant response rating,rice; [11],0
same,"Plant response rating, Rice",rice; [12],0
same,"Plant response rating, Ducksalad",duck salad; [5],0
same,Ducksalad plant response rating,duck salad; [6],0
same,"Plant response rating, Ducksalad (0 to 10 scale, 0 is no effect, 10 is complete control)",duck salad; [7],0
same,Ducksalad plant response rating,duck salad; [8],0
same,Ducksalad plant response rating,duck salad; [9],0
same,"Plant response rating, Ducksalad",duck salad; [10],2
same,Ducksalad plant response rating,duck salad; [11],0
same,"Plant response rating, Ducksalad",duck salad; [12],2
same,"Plant response rating, Barnyardgrass",bamyardgrass; [5],0
same,Barnyardgrass plant response rating,bamyardgrass; [6],0
same,"Plant response rating, Barnyardgrass (0 to 10 scale, 0 is no effect, 10 is complete control)",bamyardgrass; [7],0
same,Barnyardgrass plant response rating,bamyardgrass; [8],0
same,Barnyardgrass plant response rating,bamyardgrass; [9],0
same,"Plant response rating, Barnyardgrass",bamyardgrass; [10],2
same,Barnyardgrass plant response rating,bamyardgrass; [11],0
same,"Plant response rating, Barnyardgrass",bamyardgrass; [12],0
